Measurements published in patent publication US20160067208A1, “ADHESION PREVENTING AGENT” (FARNEX INCORPORATED, priority 2013, published 2016).

Legend:
Type in all cases: physicochemical
[1] = Viscosity of the compound itself (Gemini II, Malvern); conditions: 25° C., at shear velocity of 92 1/s
Protocol: In addition, the amphipathic compound to be used for the adhesion preventing agent of the present invention has low viscosity in itself. Specifically, the amphipathic compound to be used for the adhesion preventing agent of the present invention has a viscosity of preferably 15.0 Pa·s or less, more preferably 11.0 Pa·s or less, and further preferably 6.0 Pa·s or less as measured at 25° C. in itself. The viscosity can be measured using, for example, a viscosity and viscoelasticity measuring apparatus (Gemini II, Malvern Instruments Ltd.) at 25° C.
The viscosity of each of the compounds described in the Examples 1-7 was measured using a viscosity/viscoelasticity measuring instrument (Gemini II, Malvern) at the temperature of 25° C.

[2] = SAXS analysis of compound/water system (liquid crystal formation); conditions: compound/water system gel, 50% by mass in water-excess condition, room temperature (25° C.)
Excerpt: Whether or not a liquid crystal structure has a cubic lattice may be determined by a small-angle X-ray scattering (SAXS) method, for the purpose of confirming liquid crystal formation. First, an amphipathic compound/water system sample with a predetermined concentration can be filled into an X-ray capillary tube made of quartz, for example, and the capillary tube is sealed with an oxy-fuel burner, and subjected to SAXS assay.
Mono-O-(5,9,13-trimethyltetradeca-4,8,12-trienoyl)glycerol synthesized in Example 1 and pure water were introduced into a mixing device at the concentration of 50% by mass of mono-O-(5,9,13-trimethyltetradeca-4,8,12-trienoyl)glycerol (in water-excess condition), and they were mixed at room temperature (25° C.) and left for 24 hours to obtain a homogeneous mixture. Then the separated water was removed. Thus, a sample of mono-O-(5,9,13-trimethyltetradeca-4,8,12-trienoyl)glycerol/water system was obtained as a white turbid to colorless transparent gel composition in appearance (it was referred to below as the gel sample).
Subsequently, the gel sample was analyzed by small-angle x-ray scattering (SAXS). The NANO-Viewer nano-scale X-ray structure analysis equipment (Rigaku) was used for SAXS analysis, which was performed by X-ray irradiation at room temperature (25° C.), 40 kV, 50 mA, wavelength λ=0.1542 nm (Cu-Kα).
Each of the compounds synthesized in Example 32, 33, 43, 45, 49, and 50 and water were homogeneously mixed in accordance with the same procedure as in Example 9 to obtain a sample of each compound/water system being a gel in appearance. SAXS analysis of these gel samples was performed in the same manner as in Example 9. […]

[3] = Shear viscosity of liquid crystal gels; conditions: gel prepared by addition of water, 25° C.
Protocol: (§1) The viscosity was measured for the gels prepared by addition of water to the compounds synthesized in Examples 1, 4, and 5. Specifically, for the gel samples obtained by mixing homogeneously according to the same procedure as in Example 9, the shear viscosity was measured at a temperature of 25° C., using a viscosity and viscoelasticity measuring apparatus (Gemini II, Malvern Instruments Ltd.; cone plate φ25, cone angle 1°).
as §1, with “45” for “1, 4,”, “50, and C17 glycerin ester synthesized in Example 13.” for “5.”

Structure (SMILES) | Viscosity [1] [Pa·s] | liquid crystal structure (SAXS peak value ratio) [2] | other results
CC(C)=CCC/C(C)=C/CCC(C)=CCOCC(CO)(CO)CO (racemic) [Example 30, mono-O-(3,7,11-trimethyldodeca-2,6,10-trienyl)pentaerythritol] | 1.6 |  | 
CC(C)=CCC/C(C)=C/CCC(C)=CC(=O)OCC(O)CO (stereo not drawn) [Example 27, mono-O-(3,7,11-trimethyldodeca-2,6,10-trienoyl)glycerol] | 3.0 |  | 
CC(C)=CCC/C(C)=C/CCC(C)=CCCCOCC(CO)(CO)CO (racemic) [Example 33, mono-O-(5,9,13-trimethyltetradeca-4,8,12-trienyl)pentaerythritol] | 0.63 | cubic liquid crystals that belong to the crystallographic space group Pn3m | 
CC(C)=CCC/C(C)=C/CC/C(C)=C/CCC(C)=CCCC(=O)OCC(O)C(O)CO (stereo not drawn) [Example 5, mono-O-(5,9,13,17-tetramethyloctadeca-4,8,12,16-tetraenoyl)erythritol] | 5.8 | cubic liquid crystal that belongs to the crystallographic space group Pn3m | Viscosity ([3]; shear velocity 12 1/s): 333 Pas · sec; Viscosity ([3]; shear velocity 100.8 1/s): 17 Pas · sec
CC(=CC(=O)OCC(O)CO)CCCC(C)CCCC(C)C (stereo not drawn) [Example 54, mono-O-(3,7,11-trimethyldodec-2-enoyl)glycerol] | 0.45 |  | 
CC(C)=CCC/C(C)=C/CCC(C)=CCCCOC(=O)C(O)CO (stereo not drawn) [Example 36, 5,9,13-trimethyltetradeca-4,8,12-trienyl glycerate] | 0.16 |  | 
CC(C)=CCC/C(C)=C/CC/C(C)=C/CCC(C)=CCCCOC(=O)C(O)CO (racemic) [Example 53, 5,9,13,17-tetramethyloctadeca-4,8,12,16-tetraenyl glycerate] | 0.21 |  | 
CC(C)=CCC/C(C)=C/CC/C(C)=C/CCC(C)=CCCC(=O)OCC(O)COCC(O)CO (stereo not drawn) [Example 7, mono-O-(5,9,13,17-tetramethyloctadeca-4,8,12,16-tetraenoyl)diglycerol] | 2.6 |  | 
CC(C)=CCC/C(C)=C/CC/C(C)=C/CCC(C)=CCCCOCC(O)C(O)CO (stereo not drawn) [Example 49, mono-O-(5,9,13,17-tetramethyloctadeca-4,8,12,16-tetraenyl)erythritol] |  | reverse hexagonal liquid crystals | 
CC(C)=CCC/C(C)=C/CCC(C)=CCOCC(O)CO (racemic) [Example 28, mono-O-(3,7,11-trimethyldodeca-2,6,10-trienyl)glycerol] | 0.20 |  | 
CC(C)=CCC/C(C)=C/CC/C(C)=C/CCC(C)=CCOCC(CO)(CO)CO (racemic) [Example 46, mono-O-(3,7,11,15-tetramethylhexadeca-2,6,10,14-tetraenyl)pentaerythritol] | 2.9 |  | 
CC(C)=CCC/C(C)=C/CC/C(C)=C/CCC(C)=CCCC(=O)OCC(O)CO (racemic) [Example 4, mono-O-(5,9,13,17-tetramethyloctadeca-4,8,12,16-tetraenoyl)glycerol] | 0.37 | reverse hexagonal liquid crystal | Viscosity ([3]; shear velocity 12 1/s): 39 Pas · sec; Viscosity ([3]; shear velocity 100.8 1/s): 1.4 Pas · sec
CC(=CCCC(=O)OCC(O)CO)CCCC(C)CCCC(C)C (stereo not drawn) [Example 13, mono-O-(5,9,13-trimethyltetradec-4-enoyl)glycerol] | 0.48 |  | Viscosity ([3]; shear velocity 10 1/s): 1878 Pas · sec; Viscosity ([3]; shear velocity 105 1/s): 166 Pas · sec
CC(C)=CCC/C(C)=C/CC/C(C)=C/CCC(C)=CC(=O)OCC(CO)(CO)CO (racemic) [Example 43, mono-O-(3,7,11,15-tetramethylhexadeca-2,6,10,14-tetraenoyl)pentaerythritol] | 14 | reverse hexagonal liquid crystals | 
CC(=CCCCOCC(CO)(CO)CO)CCCC(C)CCCC(C)C (stereo not drawn) [Example 56, mono-O-(5,9,13-trimethyltetradec-4-enyl)pentaerythritol] | 0.98 |  | 
CC(C)=CCC/C(C)=C/CC/C(C)=C/CCC(C)=CCCC(=O)OCC(CO)(CO)CO (racemic) [Example 6, mono-O-(5,9,13,17-tetramethyloctadeca-4,8,12,16-tetraenoyl)pentaerythritol] | 3.3 | cubic liquid crystal that belongs to the crystallographic space group Pn3m | 
CC(C)=CCC/C(C)=C/CCC(C)=CCCC(=O)OCC(O)C(O)CO (stereo not drawn) [Example 2, mono-O-(5,9,13-trimethyltetradeca-4,8,12-trienoyl)erythritol] | 4.7 |  | 
CC(C)=CCC/C(C)=C/CCC(C)=CCCC(=O)OCC(CO)(CO)CO (racemic) [Example 3, mono-O-(5,9,13-trimethyltetradeca-4,8,12-trienoyl)pentaerythritol] | 2.5 |  | 
CC(C)=CCC/C(C)=C/CC/C(C)=C/CCC(C)=CCOC(=O)C(O)CO (racemic) [Example 52, 3,7,11,15-tetramethylhexadeca-2,6,10,14-tetraenyl glycerate] | 0.23 |  | 
CC(C)=CCC/C(C)=C/CC/C(C)=C/CCC(C)=CC(=O)OCC(O)CO (racemic) [Example 41, mono-O-(3,7,11,15-tetramethylhexadeca-2,6,10,14-tetraenoyl)glycerol] | 3.8 |  | 
CC(C)=CCC/C(C)=C/CC/C(C)=C/CCC(C)=CCCCOCC(O)COCC(O)CO (stereo not drawn) [Example 51, mono-O-(5,9,13,17-tetramethyloctadeca-4,8,12,16-tetraenyl)diglycerol] | 1.4 |  | 
CC(=CC(=O)OCC(CO)(CO)CO)CCCC(C)CCCC(C)CCCC(C)C (stereo not drawn) [Example 55, mono-O-(3,7,11,15-tetramethylhexadec-2-enoyl)pentaerythritol] | 10.6 |  | 
CC(C)=CCC/C(C)=C/CC/C(C)=C/CCC(C)=CCOCC(O)C(O)CO (stereo not drawn) [Example 45, mono-O-(3,7,11,15-tetramethylhexadeca-2,6,10,14-tetraenyl)erythritol] | 1.9 | cubic liquid crystals that belong to the crystallographic space group Pn3m | Viscosity ([3]; shear velocity 10 1/s): 314 Pas · sec; Viscosity ([3]; shear velocity 105 1/s): 4.3 Pas · sec
CC(C)=CCC/C(C)=C/CC/C(C)=C/CCC(C)=CCOCC(O)CO (racemic) [Example 44, mono-O-(3,7,11,15-tetramethylhexadeca-2,6,10,14-tetraenyl)glycerol] | 0.26 |  | 
CC(C)=CCC/C(C)=C/CCC(C)=CCCC(=O)OCC(O)CO (stereo not drawn) [Example 1, mono-O-(5,9,13-trimethyltetradeca-4,8,12-trienoyl)glycerol] | 0.26 | cubic liquid crystal that belongs to the crystallographic space group Pn3m | Viscosity ([3]; shear velocity 12 1/s): 461 Pas · sec; Viscosity ([3]; shear velocity 100.8 1/s): 37 Pas · sec
CC(C)=CCC/C(C)=C/CCC(C)=CCCCOCC(O)COCC(O)CO (stereo not drawn) [Example 34, mono-O-(5,9,13-trimethyltetradeca-4,8,12-trienyl)diglycerol] | 0.37 |  | 
CC(C)=CCCC(C)=CCCC(C)=CCCC(C)=CCCCOCC(O)CO (stereo not drawn) [Example 48, mono-O-(5,9,13,17-tetramethyloctadeca-4,8,12,16-tetraenyl)glycerol] | 0.16 |  | 
CC(C)=CCC/C(C)=C/CCC(C)=CCCCOCC(O)C(O)CO (stereo not drawn) [Example 32, mono-O-(5,9,13-trimethyltetradeca-4,8,12-trienyl)erythritol] | 1.2 | cubic liquid crystals that belong to the crystallographic space group Pn3m | 
CC(C)=CCC/C(C)=C/CCC(C)=CCCCOCC(O)CO (racemic) [Example 31, mono-O-(5,9,13-trimethyltetradeca-4,8,12-trienyl)glycerol] | 0.23 |  | 
CC(=CCCCOCC(O)CO)CCCC(C)CCCC(C)CCCC(C)C (stereo not drawn) [Example 58, mono-O-(5,9,13,17-tetramethyloctadec-4-enyl)glycerol] | 0.44 |  | 
